From ChEMBL document CHEMBL5303573, “Mapping human microbiome drug metabolism by gut bacteria and their genes” (Nature, 2019)

Columns and labels:
[1] = The drug is tested on Ruminococcus lactaris strain: ATCC29176 for biotransformation. The drug concentrations were measured before and after a 12-h incubation by liquid-chromatography-coupled mass spectrometry (LC–MS); settings: 2 µM
[2] = The drug is tested on Clostridium asparagiforme strain: DSM15981 for biotransformation. The drug concentrations were measured before and after a 12-h incubation by liquid-chromatography-coupled mass spectrometry (LC–MS); format: ADME; parameters: dose 2 uM, timepoint 0 vs 12 hours; settings: enterocloster asparagiformis, 2 µM
[3] = bacteroides fragilis, 12 h, 2 µM
Description: The drug is tested on Bacteroides fragilis strain: DS-208 for biotransformation. The drug concentrations were measured before and after a 12-h incubation by liquid-chromatography-coupled mass spectrometry (LC–MS)

[4] = bacteroides eggerthii, 12 h, 2 µM
Description: The drug is tested on Bacteroides eggerthii strain: DSM20697 for biotransformation. The drug concentrations were measured before and after a 12-h incubation by liquid-chromatography-coupled mass spectrometry (LC–MS)

[5] = The drug is tested on Bacteroides caccae strain: ATCC43185 for biotransformation. The drug concentrations were measured before and after a 12-h incubation by liquid-chromatography-coupled mass spectrometry (LC–MS); settings: 2 µM
[6] = The drug is tested on Anaerotruncus colihominis strain: DSM17241 for biotransformation. The drug concentrations were measured before and after a 12-h incubation by liquid-chromatography-coupled mass spectrometry (LC–MS); settings: 2 µM
[7] = parabacteroides distasonis, 12 h, 2 µM
Description: The drug is tested on Parabacteroides distasonis strain: ATCC8503 for biotransformation. The drug concentrations were measured before and after a 12-h incubation by liquid-chromatography-coupled mass spectrometry (LC–MS)

[8] = The drug is tested on Bacteroides fragilis strain: ATCC43859 for biotransformation. The drug concentrations were measured before and after a 12-h incubation by liquid-chromatography-coupled mass spectrometry (LC–MS); settings: 2 µM
[9] = The drug is tested on Clostridium sp. strain: fecal isolate for biotransformation. The drug concentrations were measured before and after a 12-h incubation by liquid-chromatography-coupled mass spectrometry (LC–MS); settings: 2 µM
[10] = The drug is tested on Ruminococcus torques strain: ATCC27756 for biotransformation. The drug concentrations were measured before and after a 12-h incubation by liquid-chromatography-coupled mass spectrometry (LC–MS); format: ADME; parameters: dose 2 uM, timepoint 0 vs 12 hours; settings: 2 µM
[11] = The drug is tested on Bacteroides pectinophilus strain: ATCC43243 for biotransformation. The drug concentrations were measured before and after a 12-h incubation by liquid-chromatography-coupled mass spectrometry (LC–MS); settings: 2 µM
[12] = The drug is tested on Providencia rettgeri strain: DSM1131 for biotransformation. The drug concentrations were measured before and after a 12-h incubation by liquid-chromatography-coupled mass spectrometry (LC–MS); format: ADME; parameters: dose 2 uM, timepoint 0 vs 12 hours; settings: 2 µM
[13] = The drug is tested on Bacteroides fragilis strain: HMW610 for biotransformation. The drug concentrations were measured before and after a 12-h incubation by liquid-chromatography-coupled mass spectrometry (LC–MS); settings: 2 µM
[14] = bacteroides fragilis, 12 h, 2 µM; remark: listed apart in the source
Description: The drug is tested on Bacteroides fragilis strain: 3397 (T10) for biotransformation. The drug concentrations were measured before and after a 12-h incubation by liquid-chromatography-coupled mass spectrometry (LC–MS)

[15] = parabacteroides johnsonii, 12 h, 2 µM
Description: The drug is tested on Parabacteroides johnsonii strain: DSM18315 for biotransformation. The drug concentrations were measured before and after a 12-h incubation by liquid-chromatography-coupled mass spectrometry (LC–MS)

[16] = The drug is tested on Parabacteroides merdae strain: ATCC43184 for biotransformation. The drug concentrations were measured before and after a 12-h incubation by liquid-chromatography-coupled mass spectrometry (LC–MS); settings: 2 µM
[17] = The drug is tested on Bacteroides coprophilus strain: DSM18228 for biotransformation. The drug concentrations were measured before and after a 12-h incubation by liquid-chromatography-coupled mass spectrometry (LC–MS); settings: 2 µM
[18] = The drug is tested on Bifidobacterium breve strain: DSM20213 for biotransformation. The drug concentrations were measured before and after a 12-h incubation by liquid-chromatography-coupled mass spectrometry (LC–MS); settings: 2 µM
[19] = bacteroides thetaiotaomicron, 12 h, 2 µM
Description: The drug is tested on Bacteroides thetaiotaomicron strain: 7330 for biotransformation. The drug concentrations were measured before and after a 12-h incubation by liquid-chromatography-coupled mass spectrometry (LC–MS)

[20] = The drug is tested on Bifidobacterium longum subsp. Infantis strain: CCUG52486 for biotransformation. The drug concentrations were measured before and after a 12-h incubation by liquid-chromatography-coupled mass spectrometry (LC–MS); settings: 2 µM

Measured: Bacterial Biotransformation

CCOc1ccccc1OCCN[C@H](C)Cc1ccc(OC)c(S(N)(=O)=O)c1.Cl [TAMSULOSIN HYDROCHLORIDE]
Compound NOT metabolized: all assays above

CN(C/C=C/C#CC(C)(C)C)Cc1cccc2ccccc12 [TERBINAFINE]
Compound NOT metabolized: all assays above

CN1[C@@H]2CC[C@H]1C[C@@H](OC(=O)c1c[nH]c3ccccc13)C2 [TROPISETRON]
Compound NOT metabolized: all assays above

COc1ccc(C(CN(C)C)C2(O)CCCCC2)cc1 (stereo not given) [VENLAFAXINE]
Compound NOT metabolized: all assays above
